Measured values taken from ChEMBL document CHEMBL1201862, “PubChem BioAssay data set” (2004).
Active and inactive are the calls of the source.

What was measured:
[1] = test system: INS1; experiment: INS-1E survival protection against cytokine death – cell-based, luminescence, retest, dose response (AID 449756); format: functional; conditions: Rattus norvegicus, INS1;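 also: cell death triggered by IL-1 beta plus TNF-alpha plus IFN-gamma mixture; protective hits raise ATP signal compared with cytokine alone wells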
[2] = test system: Streptococcus; experiment: GAS UMAA2166 growth inhibition – luminescence, BacTiterGlo, counter-screen for streptokinase expression inhibitor project, dose response (AID 1915); format: functional, organism-based;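 also: potency for reduction of bacterial viability or growth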
[3] = test system: Streptococcus sp. 'group A'; experiment: Streptococcus pyogenes SK(-)GAS viability under kanamycin – luminescence, BacTiterGlo, confirmation, counter-screen for streptokinase expression inhibitor project, dose response (AID 1900); format: functional, organism-based
[4] = molecular target: T1, Streptokinase A (Streptococcus pyogenes serotype M1, UniProt P10520); experiment: viability-normalized secreted streptokinase activity reduction – plasminogen activation absorbance, OD405, dose response (AID 1914); format: functional, Streptococcus pyogenes M1 GAS;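 also: secreted streptokinase activity via plasminogen activation per viability signal from cell pellet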
T1 sequence (P10520 whole entry): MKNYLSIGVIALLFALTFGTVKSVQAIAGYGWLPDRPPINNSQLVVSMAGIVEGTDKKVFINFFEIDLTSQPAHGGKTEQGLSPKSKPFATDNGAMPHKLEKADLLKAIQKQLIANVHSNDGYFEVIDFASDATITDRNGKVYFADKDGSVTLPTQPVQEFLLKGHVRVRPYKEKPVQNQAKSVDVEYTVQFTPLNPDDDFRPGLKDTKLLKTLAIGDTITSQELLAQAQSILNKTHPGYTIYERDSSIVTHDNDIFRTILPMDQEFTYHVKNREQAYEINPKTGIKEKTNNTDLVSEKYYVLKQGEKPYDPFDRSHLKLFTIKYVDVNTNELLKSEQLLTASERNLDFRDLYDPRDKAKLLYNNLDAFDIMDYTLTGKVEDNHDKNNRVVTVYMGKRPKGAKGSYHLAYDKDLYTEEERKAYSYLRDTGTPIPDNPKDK

[5] = molecular target: T2, Corticotropin-releasing factor receptor 2/Corticotropin-releasing factor-binding protein (Homo sapiens, UniProt P24387+Q13324); experiment: Dose Response confirmation of uHTS hits for small molecule antagonists of the CRF-binding protein and CRF-R2 receptor complex.; format: functional; conditions: read-out: IC50_Mean
T2 sequence (Q13324 whole entry): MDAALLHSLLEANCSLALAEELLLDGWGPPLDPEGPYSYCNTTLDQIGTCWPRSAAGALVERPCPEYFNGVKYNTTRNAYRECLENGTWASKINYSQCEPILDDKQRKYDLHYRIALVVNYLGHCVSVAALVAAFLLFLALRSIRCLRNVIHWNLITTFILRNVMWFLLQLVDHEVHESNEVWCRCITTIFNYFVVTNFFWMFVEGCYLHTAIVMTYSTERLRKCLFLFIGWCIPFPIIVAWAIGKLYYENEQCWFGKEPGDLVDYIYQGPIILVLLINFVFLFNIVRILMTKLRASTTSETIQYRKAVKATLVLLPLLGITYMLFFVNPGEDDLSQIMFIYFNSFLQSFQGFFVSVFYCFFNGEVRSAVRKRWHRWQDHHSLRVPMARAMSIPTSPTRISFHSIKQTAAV
T2 sequence (P24387 whole entry): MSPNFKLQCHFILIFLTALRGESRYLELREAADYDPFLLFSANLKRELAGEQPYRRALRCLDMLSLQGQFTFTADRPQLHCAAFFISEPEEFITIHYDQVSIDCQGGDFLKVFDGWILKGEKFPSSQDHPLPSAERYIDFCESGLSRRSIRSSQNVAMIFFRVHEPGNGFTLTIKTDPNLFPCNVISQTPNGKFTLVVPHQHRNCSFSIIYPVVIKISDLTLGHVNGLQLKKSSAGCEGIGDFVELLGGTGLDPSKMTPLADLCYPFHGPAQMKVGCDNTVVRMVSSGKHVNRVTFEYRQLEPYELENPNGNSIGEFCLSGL

[6] = molecular target: T2, Corticotropin-releasing factor receptor 2/Corticotropin-releasing factor-binding protein; experiment: activators of CRF receptor 2 with binding protein – uHTS hits, confirmation (AID 602473); format: functional; conditions: read-out: EC50_Mean
[7] = molecular target: T3, Cytochrome P450 1A2 (Homo sapiens, UniProt P05177);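 also: PubChem cytochrome P450 panel assay, CYP1A2 panel member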
T3 sequence (P05177 whole entry): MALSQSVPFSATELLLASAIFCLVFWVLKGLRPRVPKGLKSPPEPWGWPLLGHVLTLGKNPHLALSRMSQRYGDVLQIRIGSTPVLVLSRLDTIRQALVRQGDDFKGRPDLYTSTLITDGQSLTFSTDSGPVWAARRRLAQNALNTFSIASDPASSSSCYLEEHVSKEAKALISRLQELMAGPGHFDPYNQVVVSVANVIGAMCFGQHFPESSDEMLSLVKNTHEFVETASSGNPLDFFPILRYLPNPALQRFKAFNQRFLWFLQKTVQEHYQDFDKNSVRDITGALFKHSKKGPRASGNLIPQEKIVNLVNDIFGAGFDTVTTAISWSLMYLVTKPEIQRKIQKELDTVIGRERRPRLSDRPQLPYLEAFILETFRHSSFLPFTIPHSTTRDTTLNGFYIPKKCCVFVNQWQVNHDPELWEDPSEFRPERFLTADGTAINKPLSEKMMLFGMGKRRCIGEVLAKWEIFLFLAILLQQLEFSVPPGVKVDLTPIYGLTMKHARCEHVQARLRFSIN

[8] = molecular target: Cytochrome P450 3A4 (Homo sapiens, UniProt P08684);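 also: CYP3A4 tested as one member of a cytochrome P450 panel screen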
Sequence of Cytochrome P450 3A4 (P08684 whole entry): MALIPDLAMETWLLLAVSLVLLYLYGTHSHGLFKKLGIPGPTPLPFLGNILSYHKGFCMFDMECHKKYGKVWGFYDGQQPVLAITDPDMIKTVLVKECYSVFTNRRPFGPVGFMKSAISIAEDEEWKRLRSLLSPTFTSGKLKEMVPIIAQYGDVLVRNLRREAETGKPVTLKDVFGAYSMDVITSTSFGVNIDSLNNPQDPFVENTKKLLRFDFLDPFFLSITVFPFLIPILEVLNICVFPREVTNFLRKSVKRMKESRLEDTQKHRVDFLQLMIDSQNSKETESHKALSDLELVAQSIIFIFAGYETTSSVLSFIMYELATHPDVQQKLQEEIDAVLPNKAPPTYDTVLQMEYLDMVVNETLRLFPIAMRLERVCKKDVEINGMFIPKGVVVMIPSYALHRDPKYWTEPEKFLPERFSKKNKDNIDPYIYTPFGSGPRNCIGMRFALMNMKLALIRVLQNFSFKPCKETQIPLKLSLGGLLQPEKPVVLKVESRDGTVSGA

[9] = molecular target: T4, Protein skinhead-1 (Caenorhabditis elegans, UniProt P34707); format: functional
T4 sequence (P34707 whole entry): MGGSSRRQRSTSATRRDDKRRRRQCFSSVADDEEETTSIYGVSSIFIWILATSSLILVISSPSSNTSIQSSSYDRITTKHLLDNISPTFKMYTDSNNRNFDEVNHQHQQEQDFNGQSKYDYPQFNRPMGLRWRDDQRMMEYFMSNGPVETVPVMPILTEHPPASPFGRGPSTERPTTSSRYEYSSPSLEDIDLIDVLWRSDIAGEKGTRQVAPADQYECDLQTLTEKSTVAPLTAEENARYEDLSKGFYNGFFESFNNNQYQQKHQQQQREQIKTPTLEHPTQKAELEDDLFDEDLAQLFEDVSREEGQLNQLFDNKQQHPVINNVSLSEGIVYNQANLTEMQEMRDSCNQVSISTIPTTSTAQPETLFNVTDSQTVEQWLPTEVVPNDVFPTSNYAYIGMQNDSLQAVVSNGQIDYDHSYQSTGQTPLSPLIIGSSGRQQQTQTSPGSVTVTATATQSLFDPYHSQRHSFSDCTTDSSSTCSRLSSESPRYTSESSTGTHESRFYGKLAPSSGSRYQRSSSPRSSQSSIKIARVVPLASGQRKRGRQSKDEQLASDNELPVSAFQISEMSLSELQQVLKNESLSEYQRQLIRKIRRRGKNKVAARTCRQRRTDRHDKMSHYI

[10] = molecular target: Cytochrome P450 2D6 (Homo sapiens, UniProt P10635);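 also: CYP2D6 member of a cytochrome P450 panel assay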
Sequence of Cytochrome P450 2D6 (P10635 whole entry): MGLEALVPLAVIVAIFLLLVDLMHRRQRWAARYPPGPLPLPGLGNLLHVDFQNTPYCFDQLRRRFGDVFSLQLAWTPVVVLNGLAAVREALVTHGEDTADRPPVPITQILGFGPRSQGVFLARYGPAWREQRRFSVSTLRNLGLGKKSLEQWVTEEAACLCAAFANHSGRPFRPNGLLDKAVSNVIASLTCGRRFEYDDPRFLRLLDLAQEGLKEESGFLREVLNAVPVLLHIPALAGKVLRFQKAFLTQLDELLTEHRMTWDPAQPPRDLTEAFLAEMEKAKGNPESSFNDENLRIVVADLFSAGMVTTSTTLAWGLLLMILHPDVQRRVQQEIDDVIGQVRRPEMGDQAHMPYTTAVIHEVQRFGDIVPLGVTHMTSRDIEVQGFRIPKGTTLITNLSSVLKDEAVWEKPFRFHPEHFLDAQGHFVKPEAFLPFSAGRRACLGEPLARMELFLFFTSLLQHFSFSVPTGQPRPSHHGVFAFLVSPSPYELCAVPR

## COc1ccccc1NC(=O)Cn1cc(C(=O)c2ccco2)c2ccccc21
[1]
  AC50: 9.44 µM (active)

## Cc1ccc(C23CC4CC(CC(C(=O)N5CCN(C)CC5)(C4)C2)C3)cc1
[2]
  EC50: > 150 µM (not active)
[3]
  EC50: > 150 µM (not active)
[4]
  EC50: > 150 µM (not active)

## O=C(C(c1ccccc1)c1ccccc1)N1CCN(CCN2C(=O)c3cccc4cccc(c34)C2=O)CC1
[5]
  IC50: > 47.1 µM (inactive)
[6]
  EC50: > 53 µM (inactive)

## CCCC[C@@H]1C[C@H]1C(NC(=O)c1ccccc1)c1ccccc1C(F)(F)F (stereo partly drawn)
[7]
  AC50: 10 µM (inconclusive)
[8]
  AC50: 3.16 µM (inconclusive)

## CCOC(=O)c1ccc(Nc2nnc(C(C)(C)C)c(O)n2)cc1
[9]
  IC50: > 100 µM (inactive)

## CN(C)S(=O)(=O)c1cccc(NC(=O)COC(=O)c2ccc(Br)o2)c1
[8]
  AC50: 20 µM (inconclusive)

## OCc1cccc(-c2csc(C(O)(c3ccccc3)C(F)(F)F)n2)c1 (stereo not drawn)
[9]
  IC50: > 100 µM (inactive)

## O=C(Nc1ccccc1)N1CC[C@@]2(CCCN(C(=O)Oc3ccccc3)C2)C1
[7]
  AC50: 15.8 µM (inconclusive)
[8]
  AC50: 25.1 µM (inconclusive)

## CCCOc1ccc(/C=C/c2c([N+](=O)[O-])c(=O)n(C)c(=O)n2C)cc1
[2]
  EC50: > 150 µM (not active)
[3]
  EC50: 26.9 µM (active)
[4]
  EC50: > 150 µM (not active)

## O=C(Nc1ccc2c(c1)Cc1ccccc1-2)c1ccco1
[9]
  IC50: > 100 µM (inactive)

## O=C(c1csnn1)N1CCC[C@@]2(CCN(c3ccccn3)C2)C1
[10]
  AC50: 12.6 µM (inconclusive)
[8]
  AC50: 6.31 µM (inconclusive)

## Cc1nc2cnc(N(C)C)nc2n(Cc2cccs2)c1=O
[10]
  AC50: 12.6 µM (inconclusive)
[8]
  AC50: 3.16 µM (inconclusive)

## O=C(COC(=O)C12CC3CC(CC(O)(C3)C1)C2)Nc1cccc(Br)c1
[9]
  IC50: > 100 µM (inactive)

## c1ccc(-c2csc(N3CCN(c4ccccn4)CC3)n2)cc1
[9]
  IC50: 26.5 µM (active)

## COc1ccc(CN(C)S(=O)(=O)c2nnc(NC(=O)c3ccccc3Br)s2)cc1
[2]
  EC50: 98.9 µM (active)
[3]
  EC50: 6.23 µM (active)
[4]
  EC50: 9.36 µM (active)

## O=C(Nc1ccc(OC(F)F)c(Cl)c1)c1cccc(OC(F)F)c1
[9]
  IC50: 48.3 µM (active)

## COc1ccc(OC)c(-n2c(C)cc(/C=C3\C(=N)N4N=C(CC(=O)N5CCOCC5)SC4=NC3=O)c2C)c1
[2]
  EC50: 87.9 µM (active)
[3]
  EC50: 36.3 µM (active)
[4]
  EC50: > 150 µM (not active)

## COCCNC(=O)CC(c1ccccc1)c1ccccc1
[9]
  IC50: > 100 µM (inactive)

## CN1CCN(c2ncc3ncc(=O)n(Cc4cccs4)c3n2)CC1
[8]
  AC50: 25.1 µM (inconclusive)

## FC(F)(F)c1cc(Nc2ccccc2)nc(-c2ccccn2)n1
[2]
  EC50: 88.6 µM (active)
[3]
  EC50: 9.52 µM (active)
[4]
  EC50: > 150 µM (not active)

## O=C(Nc1c(C(=O)N2CCCCC2)cnn1-c1ccccc1)c1ccco1
[8]
  AC50: 17.8 µM (inconclusive)

## Cc1c(C)c2c(c(C)c1O)CC[C@@](C)(C(=O)O)O2
[7]
  AC50: 20 µM (inconclusive)
[8]
  AC50: 12.6 µM (inconclusive)
